From patent US20150105252A1, “SUBSTITUTED PYRAZOLES AS HERBICIDES” (E I DU PONT DE NEMOURS AND COMPANY, priority 2013, published 2015)

How the values were obtained:
barnyardgrass [1] = test: Test A postemergence; format: in vivo, Echinochloa crus-galli; details: Postemergence
Text: (§1) Seeds of plant species selected from barnyardgrass (Echinochloa crus-galli), kochia (Kochia scoparia), common ragweed (Ambrosia elation), Italian ryegrass (Lolium multiflorum), crabgrass, large (large crabgrass, Digitaria sanguinalis), foxtail, giant (giant foxtail, Setaria faberii), morningglory (Ipomoea spp.), pigweed (redroot pigweed, Amaranthus retroflexus), velvetleaf (Abutilon theophrasti), wheat (Triticum aestivum), and corn (Zea mays) were planted into a blend of loam soil and sand and treated preemergence with a directed soil spray using test chemicals formulated in a non-phytotoxic solvent mixture which included a surfactant.
(§2) At the same time, plants selected from these crop and weed species and also blackgrass (Alopecurus myosuroides), and galium (catchweed bedstraw, Galium aparine) were planted in pots containing the same blend of loam soil and sand and treated with postemergence applications of test chemicals formulated in the same manner. Plants ranged in height from 2 to 10 cm and were in the one- to two-leaf stage for the postemergence treatment. Treated plants and untreated controls were maintained in a greenhouse for approximately 10 days, after which time all treated plants were compared to untreated controls and visually evaluated for injury. Plant response ratings, summarized in Table A, are based on a 0 to 100 scale where 0 is no effect and 100 is complete control. A dash (-) response means no test result.

wheat [2] = test: Test A preemergence; format: in vivo, Triticum aestivum; details: 0 to 100 scale
Text: as §1, §2

foxtail, giant [3] = test: Test A postemergence; format: in vivo, Setaria faberii
Text: as §1, §2

corn [4] = test: Test A preemergence; format: in vivo, Zea mays; details: 0 to 100 scale
Text: as §1, §2

pigweed [5] = test: Test A preemergence; format: in vivo, Amaranthus retroflexus; details: Preemergence, 0 to 100 scale, 0 no effect, 100 complete control
Text: as §1, §2

foxtail, giant [6] = test: Test A preemergence; format: in vivo, Setaria faberii; details: 0 to 100 scale
Text: as §1, §2

velvetleaf [7] = test: Test A postemergence; format: in vivo, Abutilon theophrasti
Text: as §1, §2

wheat [8] = test: Test A postemergence; format: in vivo, Triticum aestivum
Text: as §1, §2

morningglory [9] = test: Test A preemergence; format: in vivo, Ipomoea spp.; details: 0 to 100 scale
Text: as §1, §2

crabgrass, large [10] = test: Test A postemergence; format: in vivo, Digitaria sanguinalis
Text: as §1, §2

pigweed [11] = test: Test A postemergence; format: in vivo, Amaranthus retroflexus
Text: as §1, §2

crabgrass, large [12] = test: Test A preemergence; format: in vivo, Digitaria sanguinalis; details: 0 to 100 scale
Text: as §1, §2

barnyardgrass [13] = test: Test A preemergence; format: in vivo, Echinochloa crus-galli; details: 0 to 100 scale
Text: as §1, §2

corn [14] = test: Test A postemergence; format: in vivo, Zea mays
Text: as §1, §2

morningglory [15] = test: Test A postemergence; format: in vivo, Ipomoea spp.
Text: as §1, §2

velvetleaf [16] = test: Test A preemergence; format: in vivo, Abutilon theophrasti; details: 0 to 100 scale
Text: as §1, §2

[17] = 125 g ai/ha, 0 to 100 scale, 0 no effect, 100 complete control
[18] = 500 g ai/ha, visual rating after approx. 10 days, 0 to 100 scale (0 no effect, 100 complete control)
[19] = preemergence, 125 g ai/ha, visual injury, approx. 10 days
[20] = Postemergence, 500 g ai/ha, visual rating after approx. 10 days, 0 to 100 scale (0 no effect, 100 complete control)
[21] = postemergence, 125 g ai/ha, about 10 days, visual rating on 0 to 100 scale (0 no effect, 100 complete control)
[22] = Preemergence, 500 g ai/ha, 0 no effect, 100 complete control
[23] = 1000 g ai/ha, visual rating after approx. 10 days, 0 to 100 scale (0 no effect, 100 complete control)
[24] = Preemergence, 1000 g ai/ha, 0 no effect, 100 complete control
[25] = Postemergence, 1000 g ai/ha, visual rating after approx. 10 days, 0 to 100 scale (0 no effect, 100 complete control)
[26] = Postemergence, 125 g ai/ha, 0 to 100 scale, 0 no effect, 100 complete control

Structure (SMILES): Cc1cc(C(=O)NCC(F)(F)F)nn1Cc1cccc(C(F)(F)F)c1F [Compound 9]
- Barnyardgrass plant response rating (barnyardgrass [1]; [17]): 0
- Barnyardgrass plant response rating (barnyardgrass [1]; [18]): 10
- Wheat plant response rating (wheat [2]; [19]): 0
- Foxtail, Giant plant response rating (foxtail, giant [3]; [20]): 0
- Foxtail, Giant plant response rating (foxtail, giant [3]; [21]): 0
- Corn plant response rating (corn [4]; [22]): 0
- Corn plant response rating (corn [4]; [19]): 0
- Pigweed plant response rating (pigweed [5]; 500 g ai/ha): 30
- Foxtail, Giant plant response rating (foxtail, giant [6]; [22]): 20
- Foxtail, Giant plant response rating (foxtail, giant [6]; [19]): 0
- Velvetleaf plant response rating (velvetleaf [7]; [20]): 0
- Velvetleaf plant response rating (velvetleaf [7]; [21]): 0
- Wheat plant response rating (wheat [8]; [20]): 0
- Wheat plant response rating (wheat [8]; [21]): 0
- Morningglory plant response rating (morningglory [9]; [22]): 0
- Morningglory plant response rating (morningglory [9]; [19]): 0
- Crabgrass, Large plant response rating (crabgrass, large [10]; [20]): 0
- Crabgrass, Large plant response rating (crabgrass, large [10]; [21]): 0
- Pigweed plant response rating (pigweed [11]; [20]): 0
- Pigweed plant response rating (pigweed [11]; [21]): 0
- Crabgrass, Large plant response rating (crabgrass, large [12]; [22]): 20
- Crabgrass, Large plant response rating (crabgrass, large [12]; [19]): 0
- Barnyardgrass plant response rating (barnyardgrass [13]; [22]): 10
- Barnyardgrass plant response rating (barnyardgrass [13]; [19]): 0
- Corn plant response rating (corn [14]; [20]): 0
- Corn plant response rating (corn [14]; [21]): 0
- Morningglory plant response rating (morningglory [15]; [20]): 10
- Morningglory plant response rating (morningglory [15]; [21]): 0
- Velvetleaf plant response rating (velvetleaf [16]; [22]): 0
- Velvetleaf plant response rating (velvetleaf [16]; [19]): 0

Structure (SMILES): Cc1cc(C(=O)NCC(F)(F)F)nn1Cc1cc(F)cc(C(F)(F)F)c1 [Compound 13]
- Barnyardgrass plant response rating (barnyardgrass [1]; [17]): 0
- Barnyardgrass plant response rating (barnyardgrass [1]; [18]): 20
- Wheat plant response rating (wheat [2]; [19]): 0
- Foxtail, Giant plant response rating (foxtail, giant [3]; [20]): 20
- Foxtail, Giant plant response rating (foxtail, giant [3]; [21]): 0
- Corn plant response rating (corn [4]; [22]): 0
- Corn plant response rating (corn [4]; [19]): 0
- Pigweed plant response rating (pigweed [5]; 500 g ai/ha): 90
- Foxtail, Giant plant response rating (foxtail, giant [6]; [22]): 50
- Foxtail, Giant plant response rating (foxtail, giant [6]; [19]): 0
- Velvetleaf plant response rating (velvetleaf [7]; [20]): 20
- Velvetleaf plant response rating (velvetleaf [7]; [21]): 0
- Wheat plant response rating (wheat [8]; [20]): 0
- Wheat plant response rating (wheat [8]; [21]): 0
- Morningglory plant response rating (morningglory [9]; [19]): 0
- Crabgrass, Large plant response rating (crabgrass, large [10]; [20]): 30
- Crabgrass, Large plant response rating (crabgrass, large [10]; [21]): 20
- Pigweed plant response rating (pigweed [11]; [20]): 60
- Pigweed plant response rating (pigweed [11]; [21]): 40
- Crabgrass, Large plant response rating (crabgrass, large [12]; [22]): 70
- Crabgrass, Large plant response rating (crabgrass, large [12]; [19]): 10
- Barnyardgrass plant response rating (barnyardgrass [13]; [22]): 0
- Barnyardgrass plant response rating (barnyardgrass [13]; [19]): 0
- Corn plant response rating (corn [14]; [20]): 0
- Corn plant response rating (corn [14]; [21]): 0
- Morningglory plant response rating (morningglory [15]; [20]): 100
- Morningglory plant response rating (morningglory [15]; [21]): 50
- Velvetleaf plant response rating (velvetleaf [16]; [22]): 0
- Velvetleaf plant response rating (velvetleaf [16]; [19]): 0

Structure (SMILES): CCc1cc(C(=O)NC2CC2)nn1Cc1cccc(C(F)(F)F)c1 [Compound 15]
- Barnyardgrass plant response rating (barnyardgrass [1]; [23]): 80
- Wheat plant response rating (wheat [2]; [24]): 20
- Foxtail, Giant plant response rating (foxtail, giant [3]; [25]): 90
- Corn plant response rating (corn [4]; [24]): 20
- Pigweed plant response rating (pigweed [5]; 1000 g ai/ha): 90
- Foxtail, Giant plant response rating (foxtail, giant [6]; [24]): 100
- Velvetleaf plant response rating (velvetleaf [7]; [25]): 100
- Wheat plant response rating (wheat [8]; [25]): 50
- Morningglory plant response rating (morningglory [9]; [24]): 90
- Crabgrass, Large plant response rating (crabgrass, large [10]; [25]): 90
- Pigweed plant response rating (pigweed [11]; [25]): 80
- Crabgrass, Large plant response rating (crabgrass, large [12]; [24]): 100
- Barnyardgrass plant response rating (barnyardgrass [13]; [24]): 90
- Corn plant response rating (corn [14]; [25]): 70
- Morningglory plant response rating (morningglory [15]; [25]): 100
- Velvetleaf plant response rating (velvetleaf [16]; [24]): 100

Structure (SMILES): CCCNC(=O)c1cc(SC)n(Cc2cccc(C(F)(F)F)c2)n1 [Compound 25]
- Barnyardgrass plant response rating (barnyardgrass [1]; [23]): 10
- Wheat plant response rating (wheat [2]; [24]): 0
- Foxtail, Giant plant response rating (foxtail, giant [3]; [25]): 20
- Corn plant response rating (corn [4]; [24]): 0
- Pigweed plant response rating (pigweed [5]; 1000 g ai/ha): 0
- Foxtail, Giant plant response rating (foxtail, giant [6]; [24]): 10
- Velvetleaf plant response rating (velvetleaf [7]; [25]): 50
- Wheat plant response rating (wheat [8]; [25]): 0
- Morningglory plant response rating (morningglory [9]; [24]): 0
- Crabgrass, Large plant response rating (crabgrass, large [10]; [25]): 30
- Pigweed plant response rating (pigweed [11]; [25]): 10
- Crabgrass, Large plant response rating (crabgrass, large [12]; [24]): 20
- Barnyardgrass plant response rating (barnyardgrass [13]; [24]): 0
- Corn plant response rating (corn [14]; [25]): 40
- Morningglory plant response rating (morningglory [15]; [25]): 100
- Velvetleaf plant response rating (velvetleaf [16]; [24]): 0

Structure (SMILES): O=C(NC1CC1)c1cc(CCCl)n(Cc2ccnc(C(F)(F)F)c2)n1 [Compound 194]
- Velvetleaf plant response rating (velvetleaf [7]; [26]): 60
- Wheat plant response rating (wheat [8]; [26]): 0
- Pigweed plant response rating (pigweed [11]; [26]): 50
- Morningglory plant response rating (morningglory [15]; [26]): 50
